Reference: patent US20250194968A1, “ADMINISTRATION OF AMINOLEVULINIC ACID WITH DELAYED FLUORESCENT IMAGING TO MAP AND QUANTIFY TISSUE OXYGENATION LEVELS” (THE TRUSTEES OF DARTMOUTH COLLEGE, priority 2022, published 2025)

Tested on: subcutaneous human pancreatic adenocarcinoma BxPC3 tumors
Assay: PpIX delayed/immediate fluorescence imaging of subcutaneous tumors after ALA injection, with palpation
Type: in vivo
Settings: nude mice with BxPC3 tumors, ALA 250 mg/kg intraperitoneal, imaged 6 hours later
Description: Nude female mice were inoculated with a single subcutaneous injection of 10^6 human pancreatic adenocarcinoma BxPC3 cells, under the skin on the flank. After approximately 3 weeks of growth, animals were chosen for imaging when their tumor diameter reached approximately 8 mm in size. These nude mice were used in the imaging experiments described below.
ALA was either intraperitoneally injected (250 mg/kg) 6 hours prior to imaging, or topically applied onto a region of interest 3 hours before imaging as Ameluz (Trademark of Biofrontera AG, Leverkusen, Germany), ointment containing 10% ALA, as further described below
Images of tumor in the live mice were acquired using a highly sensitive intensified CMOS camera synchronized with a 50-mW average output power, 635 nm, modulated diode laser using 20 microsecond (μs) pulses at repetition rate of 500 hertz (Hz) providing pulsed fluorescence excitation light. […] Irradiance were measured using a power meter with a photodiode power sensor.
The intensifier of the intensified CMOS camera was directly controlled by circuitry synchronized to the laser pulses. […] Fifty laser pulse gate periods were integrated in each image frame, alternating between immediate fluorescence and delayed fluorescence for even and odd frames, respectively. […]

SMILES: NCC(=O)CCC(=O)O [ALA, aminolevulinic acid]
- duration of excellent tumor contrast from palpation-induced deoxygenation (after palpation): up to 5 min
- contrast in a pancreatic cancer model relative to surrounding normal oxygenated tissues (delayed fluorescence and DF/IF ratio) (in some examples): 5 factor
